Assays:
Format in all cases: in vivo
[1] = tested on: fall armyworm (Spodoptera frugiperda); experiment: Test B: control of fall armyworm on corn (maize) plant, foliar spray; settings: sprayed at 50 ppm; 1-day-old larvae on corn; replicated three times
Procedure: (§1) Test compounds were formulated using a solution containing 10% acetone, 90% water and 300 ppm X-77™ Spreader Lo-Foam Formula non-ionic surfactant containing alkylarylpolyoxyethylene, free fatty acids, glycols and isopropanol (Loveland Industries, Inc. Greeley, Colo., USA). The formulated compounds were applied in 1 mL of liquid through a SUJ2 atomizer nozzle with ⅛ JJ custom body (Spraying Systems Co. Wheaton, Ill., USA) positioned 1.27 cm (0.5 inches) above the top of each test unit. All experimental compounds in these tests were sprayed at 50 ppm, and the test was replicated three times. After spraying of the formulated test compound, each test unit was allowed to dry for 1 h and then a black, screened cap was placed on top. The test units were held for 6 days in a growth chamber at 25° C. and 70% relative humidity. Plant feeding damage was then visually assessed based on foliage consumed and a pest mortality rating was also counted and calculated for each test unit.
For evaluating control of fall armyworm (Spodoptera frugiperda) the test unit consisted of a small open container with a 4-5-day-old corn (maize) plant inside. This was pre-infested (using a core sampler) with 10-15 1-day-old larvae on a piece of insect diet. Test compounds were formulated and sprayed at 50 ppm as described for Test A and replicated three times. After spraying, the test units were maintained in a growth chamber and then the control efficacy was rated for each test unit as described for Test A.

[2] = tested on: diamondback moth (Plutella xylostella); experiment: Test A: control of diamondback moth on radish plant, foliar spray; settings: sprayed at 50 ppm; neonate larvae on radish; assessed after 6 days; replicated three times
From the text: For evaluating control of diamondback moth (Plutella xylostella) the test unit consisted of a small open container with a 12-14-day-old radish plant inside. This was pre-infested with about 50 neonate larvae that were dispensed into the test unit via corn-cob grits using a bazooka inoculator. The larvae moved onto the test plant after being dispensed into the test unit.
as §1

[3] = tested on: western flower thrips (Frankliniella occidentalis); experiment: Test E: control of western flower thrips on Soleil bean plant, contact and/or systemic; settings: adult thrips, assessed after 6 days, replicated three times
Procedure: as §1
For evaluating control of the western flower thrips (Frankliniella occidentalis) through contact and/or systemic means, the test unit consisted of a small open container with a 5-7 day old Soleil Bean plant inside. Test compounds were formulated and sprayed as described for Test A. All experimental compounds in these tests were sprayed at 250 or 50 ppm as noted, and the test was replicated three times. After spraying, the test units were allowed to dry for 1 hour and then 22-27 adult thrips were added to each unit and then a black, screened cap was placed on top. The test units were held for 6 days at 25° C. and 45-55% relative humidity. A mortality rating was assessed along with a plant damage rating for each test unit.

Row | Compound | control efficacy (feeding damage or mortality): very good to excellent levels [1] | control efficacy (feeding damage or mortality): very good to excellent levels [2] | control efficacy (feeding damage or mortality): very good to excellent levels ([3]; sprayed at 250 ppm) | control efficacy (feeding damage or mortality): very good to excellent levels ([3]; sprayed at 50 ppm)
1 | O=C(NCC(Cl)CCCCl)c1ccc(C2=NOC(c3cc(Cl)cc(Cl)c3)(C(F)(F)F)C2)c2ccccc12 (mixture of isomers) [Compound 14] | 20% or less feeding damage or 80% or more mortality | 20% or less feeding damage or 80% or more mortality |  | 
2 | CCC(CO)NC(=O)c1ccc(C2=NOC(c3cccc(C(F)(F)F)c3)(C(F)(F)F)C2)c2ccccc12 (mixture of isomers) [Compound 16] | 20% or less feeding damage or 80% or more mortality | 20% or less feeding damage or 80% or more mortality |  | 
3 | CC(NC(=O)c1ccc(C2=NOC(c3cc(C(F)(F)F)cc(C(F)(F)F)c3)(C(F)(F)F)C2)c2ccccc12)C(=O)O (mixture of isomers) [Compound 31] | 20% or less feeding damage or 80% or more mortality | 20% or less feeding damage or 80% or more mortality | 20% or less feeding damage or 80% or more mortality | 
4 | CC(NC(=O)c1ccc(C2=NOC(c3cc(Cl)cc(C(F)(F)F)c3)(C(F)(F)F)C2)c2ccccc12)C(=O)O (mixture of isomers) [Compound 32] | 20% or less feeding damage or 80% or more mortality | 20% or less feeding damage or 80% or more mortality |  | 
5 | CC(NC(=O)c1ccc(C2=NOC(c3cc(Br)cc(C(F)(F)F)c3)(C(F)(F)F)C2)c2ccccc12)C(=O)O (mixture of isomers) [Compound 38] | 20% or less feeding damage or 80% or more mortality | 20% or less feeding damage or 80% or more mortality |  | 
6 | CC(=O)N(C)CCCNC(=O)c1ccc(C2=NOC(c3cc(Cl)cc(Cl)c3)(C(F)(F)F)C2)c2ccccc12 (racemic) [Compound 4] | 20% or less feeding damage or 80% or more mortality | 20% or less feeding damage or 80% or more mortality | 20% or less feeding damage or 80% or more mortality | 20% or less feeding damage or 80% or more mortality
7 | O=C(O)CNC(=O)c1ccc(C2=NOC(c3cc(C(F)(F)F)cc(C(F)(F)F)c3)(C(F)(F)F)C2)c2ccccc12 (racemic) [Compound 15] | 20% or less feeding damage or 80% or more mortality | 20% or less feeding damage or 80% or more mortality |  | 
8 | O=C(NCCCSCC(F)(F)F)c1ccc(C2=NOC(c3cccc(C(F)(F)F)c3)(C(F)(F)F)C2)c2ccccc12 (racemic) [Compound 21] | 20% or less feeding damage or 80% or more mortality | 20% or less feeding damage or 80% or more mortality |  | 
9 | O=C(NCCSCC(F)(F)F)c1ccc(C2=NOC(c3cccc(C(F)(F)F)c3)(C(F)(F)F)C2)c2ccccc12 (racemic) [Compound 22] | 20% or less feeding damage or 80% or more mortality | 20% or less feeding damage or 80% or more mortality | 20% or less feeding damage or 80% or more mortality | 20% or less feeding damage or 80% or more mortality
10 | O=C(NCCn1ccc(C(F)(F)F)n1)c1ccc(C2=NOC(c3cccc(C(F)(F)F)c3)(C(F)(F)F)C2)c2ccccc12 (centres unmarked) [Compound 17] | 20% or less feeding damage or 80% or more mortality | 20% or less feeding damage or 80% or more mortality |  | 
11 | O=C(NCCn1cncn1)c1ccc(C2=NOC(c3cccc(C(F)(F)F)c3)(C(F)(F)F)C2)c2ccccc12 (centres unmarked) [Compound 18] | 20% or less feeding damage or 80% or more mortality | 20% or less feeding damage or 80% or more mortality |  | 
12 | CC1(C)OCC(CNC(=O)c2ccc(C3=NOC(c4cccc(C(F)(F)F)c4)(C(F)(F)F)C3)c3ccccc23)O1 (centres unmarked) [Compound 19] | 20% or less feeding damage or 80% or more mortality | 20% or less feeding damage or 80% or more mortality |  | 
13 | O=C(NCC1CCCO1)c1ccc(C2=NOC(c3cccc(C(F)(F)F)c3)(C(F)(F)F)C2)c2ccccc12 (centres unmarked) [Compound 20] | 20% or less feeding damage or 80% or more mortality | 20% or less feeding damage or 80% or more mortality |  | 
14 | O=C(NCC1CCCO1)c1ccc(C2=NOC(c3cc(C(F)(F)F)cc(C(F)(F)F)c3)(C(F)(F)F)C2)c2ccccc12 (centres unmarked) [Compound 27] | 20% or less feeding damage or 80% or more mortality | 20% or less feeding damage or 80% or more mortality |  | 
15 | O=C(CNC(=O)c1ccc(C2=NOC(c3cc(Cl)cc(Cl)c3)(C(F)(F)F)C2)c2ccccc12)NCC1CC1 (centres unmarked) [Compound 44] | 20% or less feeding damage or 80% or more mortality | 20% or less feeding damage or 80% or more mortality | 20% or less feeding damage or 80% or more mortality | 20% or less feeding damage or 80% or more mortality
16 | O=C(CNC(=O)c1ccc(C2=NOC(c3cc(Cl)cc(Cl)c3)(C(F)(F)F)C2)c2ccccc12)NC1CCCCC1 (centres unmarked) [Compound 51] | 20% or less feeding damage or 80% or more mortality | 20% or less feeding damage or 80% or more mortality |  | 
17 | O=C(CNC(=O)c1ccc(C2=NOC(c3cc(Cl)cc(Cl)c3)(C(F)(F)F)C2)c2ccccc12)NC1CCCC1 (centres unmarked) [Compound 52] | 20% or less feeding damage or 80% or more mortality | 20% or less feeding damage or 80% or more mortality |  | 
18 | O=C(CNC(=O)c1ccc(C2=NOC(c3cccc(C(F)(F)F)c3)(C(F)(F)F)C2)c2ccccc12)NC1CC1 (centres unmarked) [Compound 54] | 20% or less feeding damage or 80% or more mortality | 20% or less feeding damage or 80% or more mortality |  | 
19 | O=C(CNC(=O)c1ccc(C2=NOC(c3cccc(Br)c3)(C(F)(F)F)C2)c2ccccc12)NCC1CC1 (centres unmarked) [Compound 56] | 20% or less feeding damage or 80% or more mortality | 20% or less feeding damage or 80% or more mortality |  | 
20 | O=C(CNC(=O)c1ccc(C2=NOC(c3cccc(OC(F)(F)F)c3)(C(F)(F)F)C2)c2ccccc12)NCC1CC1 (centres unmarked) [Compound 60] | 20% or less feeding damage or 80% or more mortality | 20% or less feeding damage or 80% or more mortality |  | 
21 | O=C(NCC(=O)N1CCCC1C(F)(F)F)c1ccc(C2=NOC(c3cc(Cl)cc(Cl)c3)(C(F)(F)F)C2)c2ccccc12 (centres unmarked) [Compound 91] | 20% or less feeding damage or 80% or more mortality | 20% or less feeding damage or 80% or more mortality |  | 
22 | O=C(NCC(F)(F)F)[C@H]1CCCN1C(=O)c1ccc(C2=NOC(c3cc(Cl)cc(Cl)c3)(C(F)(F)F)C2)c2ccccc12 (some centres unmarked) [Compound 102] | 20% or less feeding damage or 80% or more mortality | 20% or less feeding damage or 80% or more mortality |  | 
23 | Cn1ccc2c(C(=O)NCC[S+](C)[O-])ccc(C3=NOC(c4cc(Cl)cc(Cl)c4)(C(F)(F)F)C3)c21 (centres unmarked) [Compound 111] | 20% or less feeding damage or 80% or more mortality | 20% or less feeding damage or 80% or more mortality |  | 
